Molecules are shown by their SMILES.

The target of assay [1] is T1, PCSK9 (Homo sapiens, UniProt Q8NBP7).
T1 construct: Biotinylated PCSK9 was obtained commercially; purchased
Briefly: PCSK9 Alexa FRET Plus TR-FRET assay (displacement of AlexaFluor647 tagged cyclic peptide Reagent B). The format is binding. The conditions noted are these: 0.5 nM biotinylated PCSK9, 960 nM AF cyclic peptide Reagent B, Ki calculated from IC50 and KD of AF peptide. The method, then:
(§1) The following is a description of the assays used to determine activity of compounds of the invention, and any comparator compounds reported, toward PCSK9 antagonism. Biotinylated PCSK9 was obtained commercially.
A solution containing 1 nM biotinylated PCSK9+2.5 nM Lance Streptavidin Europium (Strep-Eu) is made in 50 mM HEPES pH 7.4, 0.15 M NaCl, 5 mM CaCl2, 0.01% BSA, and 0.01% Surfactant P20. A separate solution containing 1920 nM of the AlexaFluor tagged cyclic peptide is made in the same buffer system. An Echo is used to transfer 0.075 ul of compound plus 0.675 ul of DMSO to each well of an assay plate followed by the addition of 15 ul of PCSK9+Stept-Eu and 15 ul of AF peptide. The final assay volume is 30.750 ul containing 0.5 nM PCSK9, 1.25 nM Strep-Eu, and 960 nM AF cyclic peptide. The reaction is incubated at room temperature for at least two hours prior to fluorescence measurements using an Envision Multilabel Reader. IC50 values are determined by fitting data to a sigmoidal dose-response curve using nonlinear regression. Ki is then calculated from the IC50 and the KD of AF cyclic peptide. Counts (B-counts) of the europium-labeled PCSK9 are followed to observe if compounds are adversely affecting PCSK9. A fall off of the B-counts is likely indicates a false positive of inhibition. Data from this procedure is reported as “P=‘numerical value’ (nanomolar)”
Activity data obtained by one or both of the above-described procedures is reported for selected example compounds of the invention in the following format: Example No.: A (standard TR Fret)=‘numerical value’; P (Alexa Fret plus standard TR Fret)=‘numerical value’/, note that all values reported are nanomolar.

For assay [2], the target named is T1, PCSK9. Briefly: PCSK9 Alexa FRET Ultra TR-FRET assay (displacement of AlexaFluor647 tagged cyclic peptide). The conditions noted are these: 0.5 nM biotinylated PCSK9, 960 nM AF cyclic peptide, Ki calculated from IC50 and KD of AF peptide. The assay is classed as binding. On the procedure: as §1
A solution containing 1 nM biotinylated PCSK9+2.5 nM Lance Streptavidin Europium (Strep-Eu) is made in 50 mM HEPES pH 7.4, 0.15 M NaCl, 5 mM CaCl2, 0.01% BSA, and 0.01% Surfactant P20. A separate solution containing 1920 nM of the AlexaFluor tagged cyclic peptide is made in the same buffer system. An Echo is used to transfer 0.015 ul of compound plus 0.735 ul of DMSO to each well of an assay plate followed by the addition of 15 ul of PCSK9+Stept-Eu and 15 ul of AF peptide. The final assay volume is 30.750 ul containing 0.5 nM PCSK9, 1.25 nM Strep-Eu, and 960 nM AF cyclic peptide. The reaction is incubated at room temperature for at least two hours prior to fluorescence measurements using an Envision Multilabel Reader. IC50 values are determined by fitting data to a sigmoidal dose-response curve using nonlinear regression. Ki is then calculated from the IC50 and the KD of AF cyclic peptide. Counts (B-counts) of the europium-labeled PCSK9 are followed to observe if compounds are adversely affecting PCSK9. A fall off of the B-counts is likely indicates a false positive of inhibition. Data from this procedure is reported as “Ki Ultra=‘numerical value’ (data reported is nanomolar)”

T1 sequence (Q8NBP7 153-692): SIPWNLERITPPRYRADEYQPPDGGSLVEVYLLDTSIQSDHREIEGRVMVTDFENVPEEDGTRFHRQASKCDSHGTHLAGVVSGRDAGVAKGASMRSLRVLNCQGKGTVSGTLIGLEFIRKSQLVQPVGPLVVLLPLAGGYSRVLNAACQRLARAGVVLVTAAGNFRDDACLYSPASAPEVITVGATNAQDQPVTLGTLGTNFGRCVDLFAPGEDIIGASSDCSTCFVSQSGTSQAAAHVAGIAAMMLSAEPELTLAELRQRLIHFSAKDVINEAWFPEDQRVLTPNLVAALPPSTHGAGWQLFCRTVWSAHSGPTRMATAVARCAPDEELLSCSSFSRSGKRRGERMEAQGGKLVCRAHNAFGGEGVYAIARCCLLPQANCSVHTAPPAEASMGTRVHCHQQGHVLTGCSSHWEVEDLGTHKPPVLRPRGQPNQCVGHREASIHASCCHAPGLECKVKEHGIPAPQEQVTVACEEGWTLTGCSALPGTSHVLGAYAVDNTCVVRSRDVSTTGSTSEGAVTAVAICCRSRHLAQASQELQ

In the case of `COc1ccc(C[C@@H]2NC(=O)[C@H]([C@@H](C)O)NC(=O)[C@@H]3[C@@H]4CCN3C(=O)[C@@H]3Cc5cn(c6ccc(F)cc56)Cc5cn(nn5)CCN(Cc5ccc(cc5)CCNC(=O)[C@]5(C)CCCN5C2=O)C(=O)CCCCCC(=O)N[C@H](CNC(=O)CCOCCOCC[N+](C)(C)C)C(=O)N[C@@H](Cc2cccc(c2)CNC(=O)CO4)C(=O)N3)cc1` [Ex-16], the values for the Ki in assay [1] (read-out: Ki Plus) and in assay [2] (read-out: Ki Ultra) were 14.2 pM and 51.4 pM, respectively.
In the same order, the values of `COc1ccc(C[C@@H]2NC(=O)[C@H]([C@@H](C)O)NC(=O)[C@@H]3[C@@H]4CCN3C(=O)[C@@H]3Cc5cn(c6ccc(F)cc56)CCCCCN(Cc5ccc(cc5)CCNC(=O)[C@]5(C)CCCN5C2=O)C(=O)CCC(=O)N[C@@H](C)C(=O)N[C@H](CNC(=O)CCOCCOCC[N+](C)(C)C)C(=O)N[C@@H](Cc2cccc(c2)CNC(=O)CO4)C(=O)N3)cc1` [Ex-17] are no more than 5.58 pM and 2.8 pM.
Consider `COc1ccc(C[C@@H]2NC(=O)[C@H]([C@@H](C)O)NC(=O)[C@@H]3[C@@H]4CCN3C(=O)[C@@H]3Cc5cn(c6ccc(F)cc56)CCCCCCN(Cc5ccc(cc5)CCNC(=O)[C@]5(C)CCCN5C2=O)C(=O)CCCC(=O)N[C@H](CNC(=O)CCOCCOCC[N+](C)(C)C)C(=O)N[C@@H](Cc2cccc(c2)CNC(=O)CO4)C(=O)N3)cc1` [Ex-18], for which the inhibitory constant (Ki) (as a rule, the dissociation constant of the complex between target and ligand, obtained from inhibition or displacement) is 33.6 pM in assay [1] (Ki Plus) and 118 pM in assay [2] (Ki Ultra).
Turning to `COc1ccc(C[C@@H]2NC(=O)[C@H]([C@@H](C)O)NC(=O)[C@@H]3[C@@H]4CCN3C(=O)[C@@H]3Cc5cn(c6ccc(F)cc56)CCCCCCN(Cc5ccc(cc5)CCNC(=O)[C@]5(C)CCCN5C2=O)C(=O)CCC(=O)N[C@H]2CN(C(=O)CCOCCOCC[N+](C)(C)C)CCCCC(=O)NC[C@@H](NC2=O)C(=O)N[C@@H](Cc2cccc(c2)CNC(=O)CO4)C(=O)N3)cc1` [Ex-19], the Ki in assay [1] (read-out: Ki Plus) is 16.6 pM; in assay [2] (read-out: Ki Ultra), 12 pM.
In the same order, the values of `COc1ccc(C[C@@H]2NC(=O)[C@H]([C@@H](C)O)NC(=O)[C@@H]3[C@@H]4CCN3C(=O)[C@@H]3Cc5cn(c6ccc(F)cc56)CCCCCCN(Cc5ccc(cc5)CCNC(=O)[C@]5(C)CCCN5C2=O)C(=O)CCCCC(=O)N[C@H](CNC(=O)CCOCCOCC[N+](C)(C)C)C(=O)N[C@@H](Cc2cccc(c2)CNC(=O)CO4)C(=O)N3)cc1` [Ex-20] are 13 pM and 17.1 pM.
As for `COc1ccc(C[C@@H]2NC(=O)[C@H]([C@@H](C)O)NC(=O)[C@@H]3[C@@H]4CCN3C(=O)[C@@H]3Cc5cn(c6ccc(F)cc56)CCCCCCN(Cc5ccc(cc5)CCNC(=O)[C@]5(C)CCCN5C2=O)C(=O)CCCCCC(=O)N[C@H](CNC(=O)CCOCCOCC[N+](C)(C)C)C(=O)N[C@@H](Cc2cccc(c2)CNC(=O)CO4)C(=O)N3)cc1` [Ex-21], the Ki in assay [1] (Ki Plus) is 5.69 pM; in assay [2] (Ki Ultra) it was 1.26 pM.
Regarding `COc1ccc(C[C@@H]2NC(=O)[C@H]([C@@H](C)O)NC(=O)[C@@H]3[C@@H]4CCN3C(=O)[C@@H]3Cc5cn(c6ccc(F)cc56)CCCCCCN(Cc5ccc(cc5)CCNC(=O)[C@]5(C)CCCN5C2=O)C(=O)CCC(=O)N[C@@H](CNC(=O)CCOCCOCC[N+](C)(C)C)C(=O)N[C@H](C)C(=O)N[C@@H](Cc2cccc(c2)CNC(=O)CO4)C(=O)N3)cc1` [Ex-22], the figures for the Ki in assay [1] (read-out: Ki Plus) and in assay [2] (read-out: Ki Ultra) were 9.26 pM and 15.2 pM, respectively.
With `COc1ccc(C[C@@H]2NC(=O)[C@H]([C@@H](C)O)NC(=O)[C@@H]3[C@@H]4CCN3C(=O)[C@@H]3Cc5cn(c6ccc(F)cc56)CCCCCCN(Cc5ccc(cc5)CCNC(=O)[C@]5(C)CCCN5C2=O)C(=O)CCC(=O)N[C@@H](C)C(=O)N[C@H](CNC(=O)CCC(=O)NC2OC(CO)C(O)C(O)C2O)C(=O)N[C@@H](Cc2cccc(c2)CNC(=O)CO4)C(=O)N3)cc1` (stereo partly shown) [Ex-23], the Ki in assay [1] (read-out: Ki Plus) is 9.38 pM; in assay [2] (read-out: Ki Ultra), 2.39 pM.
For the compound `COc1ccc(C[C@@H]2NC(=O)[C@H]([C@@H](C)O)NC(=O)[C@@H]3[C@@H]4CCN3C(=O)[C@@H]3Cc5cn(c6ccc(F)cc56)CCCCCCN(Cc5ccc(cc5)CCNC(=O)[C@]5(C)CCCN5C2=O)C(=O)CCC(=O)N[C@@H](C)C(=O)N[C@H](CNC(=O)CCCCC[N+](C)(C)C)C(=O)N[C@@H](Cc2cccc(c2)CNC(=O)CO4)C(=O)N3)cc1` [Ex-25], the results for the Ki in assay [1] (read-out: Ki Plus) and in assay [2] (Ki Ultra) were 11.3 pM and 4.63 pM, respectively.
On to `COc1ccc(C[C@@H]2NC(=O)[C@H]([C@@H](C)O)NC(=O)[C@@H]3C4CCN3C(=O)[C@@H]3Cc5cn(c6ccc(F)cc56)CCCCN(Cc5ccc(cc5)CCNC(=O)[C@]5(C)CCCN5C2=O)C(=O)CCCCCC(=O)N[C@H](CNC(=O)CCC(=O)NC2OC(CO)C(O)C(O)C2O)C(=O)N[C@@H](Cc2cccc(c2)CNC(=O)CO4)C(=O)N3)cc1` (stereo partly shown) [Ex-26], for which the Ki in assay [1] (read-out: Ki Plus) was no more than 5.58 pM; in assay [2] (read-out: Ki Ultra), 2.75 pM.
In the case of `COc1ccc(C[C@@H]2NC(=O)[C@H]([C@@H](C)O)NC(=O)[C@@H]3[C@@H]4CCN3C(=O)[C@@H]3Cc5cn(c6ccc(F)cc56)CCCCN(Cc5ccc(cc5)CCNC(=O)[C@]5(C)CCCN5C2=O)C(=O)CCC(=O)N[C@@H](C)C(=O)N[C@H](CNC(=O)CCC(=O)NC2OC(CO)C(O)C(O)C2O)C(=O)N[C@@H](Cc2cccc(c2)CNC(=O)CO4)C(=O)N3)cc1` (stereo partly shown) [Ex-27], the Ki in assay [1] (read-out: Ki Plus) is 5.58 pM; in assay [2] (read-out: Ki Ultra), 3.01 pM.
With `COc1ccc(C[C@@H]2NC(=O)[C@H]([C@@H](C)O)NC(=O)[C@@H]3[C@@H]4CCN3C(=O)[C@@H]3Cc5cn(c6ccc(F)cc56)C/C=C/CN(Cc5ccc(cc5)CCNC(=O)[C@]5(C)CCCN5C2=O)C(=O)CCC(=O)N[C@@H](C)C(=O)N[C@H](CNC(=O)CCOCCOCC[N+](C)(C)C)C(=O)N[C@@H](Cc2cccc(c2)CNC(=O)CO4)C(=O)N3)cc1` [Ex-29], the Ki in assay [1] (read-out: Ki Plus) was 9.81 pM; in assay [2] (read-out: Ki Ultra) it was 6.14 pM.
`COc1ccc(C[C@@H]2NC(=O)[C@H]([C@@H](C)O)NC(=O)[C@@H]3[C@@H]4CCN3C(=O)[C@@H]3Cc5cn(c6ccccc56)CCCCCCN(Cc5ccc(cc5)CCNC(=O)[C@]5(C)CCCN5C2=O)C(=O)CCC(=O)N[C@@H](C)C(=O)N[C@H](CNC(=O)CCCCC[N+](C)(C)C)C(=O)N[C@@H](Cc2cccc(c2)CNC(=O)CO4)C(=O)N3)cc1` [Ex-35]: the results for the Ki in assay [1] (Ki Plus) and in assay [2] (Ki Ultra) were 46.5 pM and 84.3 pM, respectively.
For `COc1ccc(C[C@@H]2NC(=O)[C@H](C)NC(=O)[C@@H]3[C@@H]4CCN3C(=O)[C@@H]3Cc5cn(c6ccc(F)cc56)CCCCCCN(Cc5ccc(cc5)CCNC(=O)[C@]5(C)CCCN5C2=O)C(=O)CCC(=O)N[C@@H](C)C(=O)N[C@H](CNC(=O)CCCCC[N+](C)(C)C)C(=O)N[C@@H](Cc2cccc(c2)CNC(=O)CO4)C(=O)N3)cc1` [Ex-36], in that order: 7.62 pM and 5.07 pM.
For `COc1ccc(C[C@@H]2NC(=O)[C@H]([C@@H](C)O)NC(=O)[C@@H]3[C@@H]4CCN3C(=O)[C@@H]3Cc5cn(c6ccc(F)cc56)CCCCC[C@@H](NC(=O)CCC(=O)N[C@@H](C)C(=O)N[C@H](CNC(=O)CCCCC[N+](C)(C)C)C(=O)N[C@@H](Cc5cccc(c5)CNC(=O)CO4)C(=O)N3)c3ccc(cc3)CCNC(=O)[C@]3(C)CCCN3C2=O)cc1` [Ex-38], in that order: 9.04 pM and 14.2 pM.
For `COc1ccc(C[C@@H]2NC(=O)[C@H]([C@@H](C)O)NC(=O)[C@@H]3[C@@H]4CCN3C(=O)[C@@H]3Cc5cn(c6ccc(F)cc56)CCCCCOCc5cc(ccc5CNC(=O)CCC(=O)N[C@@H](C)C(=O)N[C@H](CNC(=O)CCCCC[N+](C)(C)C)C(=O)N[C@@H](Cc5cccc(c5)CNC(=O)CO4)C(=O)N3)CCNC(=O)[C@]3(C)CCCN3C2=O)cc1` [Ex-39], in that order: 7.16 pM and 4.14 pM.
As to `COc1ccc(C[C@@H]2NC(=O)[C@H]([C@@H](C)O)NC(=O)[C@@H]3[C@@H]4CCN3C(=O)[C@@H]3Cc5cn(c6ccc(F)cc56)CCCCOc5cc(cc(c5)CNC(=O)CCC(=O)N[C@@H](C)C(=O)N[C@H](CNC(=O)CCCCC[N+](C)(C)C)C(=O)N[C@@H](Cc5cccc(c5)CNC(=O)CO4)C(=O)N3)CCNC(=O)[C@]3(C)CCCN3C2=O)cc1` [Ex-40], the results for the Ki in assay [1] (Ki Plus) and in assay [2] (Ki Ultra) were 308 pM and 860 pM, respectively.

Values taken from patent US12209145B2, “PCSK9 antagonist compounds” (Merck Sharp & Dohme LLC, priority 2018, dated 2025).
